Results: patent publication EP0419292A1, “Human tryptase-like protein” (TAISHO PHARMACEUTICAL CO. LTD, priority 1989, dated 1991)
“Also recorded” adds a separate entry of the source. Starred links: 1 amine or outer side, 2 acyl side, 3 side chain; linkers in the order of their positions; H or OH if unused. Non-standard residues stand in square brackets, D forms with d. Residues, ends and D or L forms follow the SMILES beside them. *: point of attachment. Sta = CC(C)C[C@H](N)[C@@H](O)CC(=O)O; Glutaryl = O=C(CCCC(=O)[*:2])[*:1]; AMC = Cc1cc(=O)oc2cc(N*)ccc12; Suc = O=C(CCC(=O)[*:2])[*:1]; Isovaleryl = CC(C)CC(=O)*; Boc = CC(C)(C)OC(=O)*

Columns and labels:
[1] = test system: human tryptase-like protein; assay: Effects of inhibitors on the trypsin-like activity; format: biochemical; details: 10 µM inhibitor; for Inhibition (%) / Activity: substrate Boc-Gln-Gly-Arg-MCA; for Activity: control 843.1
Description: (§1) Enzyme activity of the human tryptase-like protein during the course of purification or after purification was measured as follows. The enzyme sample was added to 0.1 M Tris-HCl buffer (pH 7.8) containing 25 mM calcium chloride and 100 µM of fluorogenic substrate. The fluorescence was measured with excitation and emmision wavelength of 380 nm and 460 nm, respectively.
Effects of inhibitors on the trypsin-like activity of the human tryptase-like protein was examined using Boc-Gln-Gly-Arg-MCA as substrate.

[2] = test system: human tryptase-like protein; assay: Enzyme activity with fluorogenic substrates (substrate specificity); format: biochemical; details: for Activity: Substrate 100 µM, 0.1 M Tris-HCl pH 7.8, 25 mM calcium chloride; for %: activity relative to Boc-Gln-Gly-Arg-MCA (100), substrate 100 µM; for hydrolysis by human tryptase-like protein: trypsin-like or chymotrypsin-like activity
Description: as §1, with “respectively. Effects of inhibitors on the enzyme activity were examined by adding 10 µM each of inhibitor to the reaction solution described above.” for “respectively.”

| Compound | Inhibition (%) [1] [%] | Activity [1] [µU/ml] | Activity [2] [µU/ml] | % [2] [%] | hydrolysis by human tryptase-like protein [2] | inhibition of trypsin-like activity [1] |
| --- | --- | --- | --- | --- | --- | --- |
| CC(C)C[C@@H](N)[C@H](O)C(=O)N[C@H](C(=O)N[C@H](C(=O)N[C@@H](CC(=O)O)C(=O)O)C(C)C)C(C)C [Amastatin] | 9 | 767.2 | – | – | – | – |
| N=C(N)c1ccccc1 [Benzamidine] | 3 | 817.8 | – | – | – | – |
| CC(C)C[C@H](NC(=O)[C@@H](O)[C@H](N)Cc1ccccc1)C(=O)O [Bestatin] | 0 | 843.0 | – | – | – | – |
| Cc1cc(=O)oc2cc(NC(=O)[C@H](CCCNC(=N)N)NC(=O)[C@@H]3CCCN3C(=O)CNC(=O)[C@H](C)NC(=O)OC(C)(C)C)ccc12 [Boc-Ala-Gly-Pro-Arg-MCA] (Boc-AGPR-{AMC}) | – | – | 199.7 | 26 | – | – |
| Cc1cc(=O)oc2cc(NC(=O)[C@H](CCCNC(=N)N)NC(=O)[C@H](C)NC(=O)[C@H](CCC(N)=O)NC(=O)OC(C)(C)C)ccc12 [Boc-Gln-Ala-Arg-MCA] (Boc-Gln-Ala-Arg-{AMC}) | – | – | 532.4 | 71 | – | – |
| Cc1cc(=O)oc2cc(NC(=O)[C@H](CCCNC(=N)N)NC(=O)[C@H](CCCNC(=N)N)NC(=O)[C@H](CCC(N)=O)NC(=O)OC(C)(C)C)ccc12 [Boc-Gln-Arg-Arg-MCA] (Boc-Gln-Arg-Arg-{AMC}) | – | – | 177.5 | 24 | – | – |
| Cc1cc(=O)oc2cc(NC(=O)[C@H](CCCNC(=N)N)NC(=O)CNC(=O)[C@H](CCC(N)=O)NC(=O)OC(C)(C)C)ccc12 [Boc-Gln-Gly-Arg-MCA] (Boc-Gln-Gly-Arg-{AMC}) | – | – | 754.4 | 100 | cleaves; also recorded: hydrolyzed most rapidly | – |
| Cc1cc(=O)oc2cc(NC(=O)[C@H](CCCCN)NC(=O)[C@H](CCCCN)NC(=O)[C@H](CCC(=O)O)NC(=O)OC(C)(C)C)ccc12 [Boc-Glu-Lys-Lys-MCA] (Boc-Glu-Lys-Lys-{AMC}) | – | – | 221.9 | 29 | – | – |
| Cc1cc(=O)oc2cc(NC(=O)[C@H](CCCNC(=N)N)NC(=O)[C@H](CCCNC(=N)N)NC(=O)CNC(=O)OC(C)(C)C)ccc12 [Boc-Gly-Arg-Arg-MCA] | – | – | 44.4 | 6 | – | – |
| Cc1cc(=O)oc2cc(NC(=O)[C@H](CCCNC(=N)N)NC(=O)[C@H](CCCCN)NC(=O)CNC(=O)OC(C)(C)C)ccc12 [Boc-Gly-Lys-Arg-MCA] (Boc-Gly-Lys-Arg-{AMC}) | – | – | 177.5 | 24 | – | – |
| CC[C@H](C)[C@H](NC(=O)OC(C)(C)C)C(=O)N[C@@H](CCC(=O)O)C(=O)NCC(=O)N[C@@H](CCCNC(=N)N)C(=O)Nc1ccc2c(C)cc(=O)oc2c1 [Boc-Ile-Glu-Gly-Arg-MCA] (Boc-IEGR-{AMC}) | – | – | 355.0 | 47 | – | – |
| Cc1cc(=O)oc2cc(NC(=O)[C@H](CCCNC(=N)N)NC(=O)[C@H](CCCNC(=N)N)NC(=O)[C@H](CC(C)C)NC(=O)OC(C)(C)C)ccc12 [Boc-Leu-Arg-Arg-MCA] (Boc-Leu-Arg-Arg-{AMC}) | – | – | 110.9 | 15 | – | – |
| Cc1cc(=O)oc2cc(NC(=O)[C@H](CCCNC(=N)N)NC(=O)[C@@H](NC(=O)[C@H](CC(C)C)NC(=O)OC(C)(C)C)[C@@H](C)O)ccc12 [Boc-Leu-Thr-Arg-MCA] (Boc-Leu-Thr-Arg-{AMC}) | – | – | 110.9 | 15 | – | – |
| Cc1cc(=O)oc2cc(NC(=O)[C@H](CCCNC(=N)N)NC(=O)[C@H](CO)NC(=O)[C@H](Cc3ccccc3)NC(=O)OC(C)(C)C)ccc12 [Boc-Phe-Ser-Arg-MCA] (Boc-Phe-Ser-Arg-{AMC}) | – | – | 177.5 | 24 | – | – |
| Cc1cc(=O)oc2cc(NC(=O)[C@H](CCCNC(=N)N)NC(=O)[C@@H]3CCCN3C(=O)[C@@H](NC(=O)OC(C)(C)C)C(C)C)ccc12 [Boc-Val-Pro-Arg-MCA] (Boc-Val-Pro-Arg-{AMC}) | – | – | 66.6 | 9 | – | – |
| CC(C)C[C@H](NC(=O)[C@@H](NC(=O)N[C@@H](Cc1ccccc1)C(=O)O)[C@@H]1CCN=C(N)N1)C(=O)N[C@H](C=O)Cc1ccccc1 [Chymostatin] | 47 | 443.8 | – | – | – | inhibited |
| CC(C)CCNC(=O)[C@H](CC(C)C)NC(=O)[C@H]1O[C@@H]1C(=O)O [E-64c] | 11 | 754.4 | – | – | – | – |
| CC(C)C[C@H](NC(=O)N[C@H](C(=O)N[C@@H](CCC(N)=O)C(=O)N[C@@H](C)C=O)[C@@H]1CCNC(=N)N1)C(=O)O [Elastatinal] | 16 | 710.0 | – | – | – | – |
| Cc1cc(=O)oc2cc(NC(=O)[C@H](CCCNC(=N)N)NC(=O)CNC(=O)CCCC(=O)O)ccc12 [Glt-Gly-Arg-MCA] (Glutaryl-Gly-Arg-{AMC}) | – | – | 332.8 | 44 | – | – |
| CC(=O)N[C@@H](CC(C)C)C(=O)N[C@@H](CC(C)C)C(=O)N[C@H](C=O)CCCNC(=N)N [Leupeptin] | 87 | 110.9 | – | – | – | inhibited; also recorded: strongly inhibited |
| O=S(=O)(F)Cc1ccccc1 [PMSF, phenylmethylsulfonyl fluoride] | 13 | 732.2 | – | – | – | – |
| CC(C)CC(=O)N[C@H](C(=O)N[C@H](C(=O)N[C@@H](CC(C)C)[C@@H](O)CC(=O)N[C@@H](C)C(=O)N[C@@H](CC(C)C)[C@@H](O)CC(=O)O)C(C)C)C(C)C [Pepstatin] (Isovaleryl-VV[Sta]A[Sta]-OH) | 0 | 845.0 | – | – | – | – |
| CC(C)C[C@H](NP(=O)(O)O[C@@H]1O[C@@H](C)[C@H](O)[C@@H](O)[C@H]1O)C(=O)N[C@@H](Cc1c[nH]c2ccccc12)C(=O)O [Phosphoramidone] | 3 | 820.9 | – | – | – | – |
| Cc1cc(=O)oc2cc(NC(=O)[C@H](CCCNC(=N)N)NC(=O)[C@H](Cc3ccccc3)NC(=O)[C@@H]3CCCN3)ccc12 [Pro-Phe-Arg-MCA] (H-Pro-Phe-Arg-{AMC}) | – | – | 155.3 | 21 | – | – |
| Cc1cc(=O)oc2cc(NC(=O)[C@H](Cc3ccccc3)NC(=O)[C@@H]3CCCN3C(=O)[C@H](C)NC(=O)[C@H](C)NC(=O)CCC(=O)O)ccc12 [Suc-Ala-Ala-Pro-Phe-MCA] (Suc-AAPF-{AMC}) | – | – | 110.9 | 15 | – | – |
| Cc1cc(=O)oc2cc(NC(=O)[C@H](Cc3ccc(O)cc3)NC(=O)[C@@H](NC(=O)[C@H](CC(C)C)NC(=O)[C@H](CC(C)C)NC(=O)CCC(=O)O)C(C)C)ccc12 [Suc-Leu-Leu-Val-Tyr-MCA] (Suc-LLVY-{AMC}) | – | – | 244.1 | 32 | cleaves; also recorded: hydrolized most rapidly | – |
| Cc1ccc(S(=O)(=O)N[C@@H](CCCCN)C(=O)CCl)cc1 [TLCK, Nα-p-tosyl-L-lysine chloromethyl ketone] | 18 | 691.3 | – | – | – | – |
| N-tosyl-L-phenylalanine chloromethyl ketone [TPCK] | 16 | 708.2 | – | – | – | – |
